Tested on: human alpha 1b adrenergic receptor
Test: Selective Binding Assay, alpha 1b (competition with [125I]-HEAT)
Settings: alpha 1a versus alpha 1b
Method: Membranes prepared from stably transfected human alpha 1d and alpha 1b cell lines (ATCC […] and CRL 11139, respectively) were used to identify compounds that selectively bind to the human alpha 1a adrenergic receptor. These competition binding) reactions (total volume=200 μl) contained 50 mM Tris-HCl pH. 7.4, 5 mM EDTA, 150 mM NaCl, 100 pM [^125 I]-HEAT, membranes prepared from cell lines transfected with the respective alpha 1 subtype expression plasmid and increasing amounts of unlabeled ligand. Reactions were incubated at room temperature for one hour with shaking. Reactions were filtered onto Whatman GF/C glass fiber filters with a Inotec 96 well cell harvester. Filters were washed three times with ice cold buffer and bound radioactivity was determined (Ki).

## COC[C@@H]1OC(=O)N(C(=O)NCCCN2CCC(c3ccccc3C#N)CC2)[C@H]1c1ccc(F)c(F)c1 [Example 11, (4S,5R)-4-(3,4-Difluorophenyl)-5-methoxymethyl-2-oxo-oxazolidine-3-carboxylic acid {3-[4-(2-cyanophenyl)piperidin-1-yl]propyl}amide]
  selectivity in binding to alpha 1a receptors versus alpha 1b receptors: about 184 fold

## COC[C@@H]1OC(=O)N(C(=O)NCCCN2CCC(c3ccc(F)cc3C#N)CC2)[C@H]1c1ccc(F)c(F)c1 [Example 13, (4S,5R)-4-(3,4-Difluorophenyl)-5-methoxymethyl-2-oxo-oxazolidine-3-carboxylic acid {3-[4-(2-cyano-4-fluorophenyl)piperidin-1-yl]propyl}amide]
  selectivity in binding to alpha 1a receptors versus alpha 1b receptors: about 453 fold

From US6228870A, “Oxazolidinones useful as alpha 1a adrenoceptor antagonists” (Merck & Co., Inc., priority 1999, dated 2001)
